Reference: patent US11173173B2, “Methods for treating chemoresistant cancer-initiating cells” (UNIVERSITY OF CONNECTICUT, priority 2015, dated 2021)

How the values were obtained:
[1] = biological target: T1, EGFP-AKT and mCherry-β-catenin (Mus musculus, UniProt Q02248); assay: FRET assay (acceptor photobleaching) of Akt/β-catenin interaction in 293T cells; type: cell-based; settings: 25, 50, 100, 200 nM; vehicle 2.24%
T1 construct: host or cells: 293T cells
T1 sequence (Q02248 1-781): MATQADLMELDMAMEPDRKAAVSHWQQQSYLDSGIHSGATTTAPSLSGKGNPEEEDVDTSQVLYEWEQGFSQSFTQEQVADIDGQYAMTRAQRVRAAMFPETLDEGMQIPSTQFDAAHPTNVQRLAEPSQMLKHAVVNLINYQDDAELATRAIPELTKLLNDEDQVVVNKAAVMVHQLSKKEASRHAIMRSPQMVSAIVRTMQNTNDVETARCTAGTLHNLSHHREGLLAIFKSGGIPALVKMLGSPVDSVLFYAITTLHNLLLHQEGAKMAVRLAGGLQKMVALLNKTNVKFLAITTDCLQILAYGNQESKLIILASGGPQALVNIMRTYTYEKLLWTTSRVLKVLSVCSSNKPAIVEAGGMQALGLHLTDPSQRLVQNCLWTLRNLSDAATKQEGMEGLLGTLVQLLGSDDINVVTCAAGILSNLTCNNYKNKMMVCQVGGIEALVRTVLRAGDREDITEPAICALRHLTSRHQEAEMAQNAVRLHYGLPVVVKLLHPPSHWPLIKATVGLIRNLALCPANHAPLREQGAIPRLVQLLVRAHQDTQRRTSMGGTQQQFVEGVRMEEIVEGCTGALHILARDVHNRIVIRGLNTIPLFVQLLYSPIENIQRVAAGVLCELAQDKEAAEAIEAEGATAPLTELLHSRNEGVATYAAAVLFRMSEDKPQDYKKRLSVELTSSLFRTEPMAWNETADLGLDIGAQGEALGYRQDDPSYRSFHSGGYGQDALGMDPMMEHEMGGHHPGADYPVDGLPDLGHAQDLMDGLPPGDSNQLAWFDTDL
Protocol: FRET measurement was performed by using the acceptor photobleaching method. […] A Perkin-Elmer Ultraview spinning disc system with a CSU-X1 Yokogawa disc was used for imaging. A 40X 1.2 NA Plan-apochromatic objective was used, and emission was collected onto a C9100 Hamamatsu Photonics EM-CCD. EGFP was excited with a 488 nm laser, and emission was collected through a 500-555 nm band pass filter. mCherry was illuminated, and photobleached, with a 561 nm laser. Emission of mCherry was collected with a 580-650 nm band pass filter. 6 images of EGFP were acquired before and 8 images after bleaching of the mCherry with intense 561 nm light. After subtraction of camera background, the average intensity of EGFP in a region of interest spanning the bleached cell was determined in the 4 images before acceptor bleach (I1), or the 4 images after acceptor bleach (I2). FRET efficiency is reported as 1−(I1/I2). Calculations were based on >500 cell images.
To test whether DXR could block interaction between Akt and β-catenin, Fluorescence Resonance Energy Transfer (FRET) analysis using EGFP-AKT and mCherry-β-catenin transfected cells was performed.

[2] = tested on: tumorigenic cells (functional LSCs) in BM of treated leukemic mice; assay: Tumorigenic assay: BM of treated leukemic mice transplanted into NSG recipients; type: in vivo, mouse
Protocol: At 12 days post-treatment, BM was harvested from treated mice and transplanted into sub-lethally irradiated NSG recipients. a, Treatment schematic and Kaplan-Meier curves of recipient mice. b, Recipients of BM from [Low]DXR only treated leukemic mice were analyzed by flow cytometry at 6 months post-transplant. […] Dashed line indicates day of final [Low]nanoDXR treatment. f, Surviving [Low]nanoDXR treated mice were analyzed by flow cytometry at 230 days post-treatment.
At 12 days post-treatment, BM was harvested from treated mice and transplanted into sub-lethally irradiated NSG recipients. a, Treatment schematic and Kaplan-Meier curves of recipient mice.
Tumorigenic assays were performed by transplanting 0.5, 1.5, or 4.5×10^4 bone marrow cells from treated mice at 12 days post-treatment into 3.25 Gy irradiated NSG recipient mice. 10 recipients were used for each dose from each group. One male and one female donor was used for each group. Leukemia was assessed in mice euthanized due to poor health by analyzing CD45^Hi CD3^+ cell frequency. Mice having >20% Blasts in the bone marrow were considered leukemic.
A cohort of mice was established as in FIG. 3a. One week after completion of treatment with vehicle, chemotherapy, [Low]DXR, or chemotherapy+[Low]DXR, we transplanted BM from treated mice into irradiated NSG recipients to test for tumorigenic cells.

[3] = tested on: LSCs and HSPCs of leukemic Pten:β-catAct mice; assay: Example 6: LSCs and HSPCs in BM of leukemic mice, Doxo vs NanoDoxo vs Doxil with chemotherapy; type: in vivo, mouse; settings: Doxo 0.5 mg/kg x5 daily, NanoDoxo or Doxil single 0.8 mg/kg, BM 5-6 days after treatment
Text: All drugs were solubilized in 45% (2-Hydroxypropyl)-β-cyclodextrin (HBC).

[4] = Cardiotoxicity based on cardiac troponin I level and histology; type: in vivo; settings: 1 mg/kg (8 doses) and high single dose
Protocol: Data are presented as mean±SD (n=5) *P<0.05, **P<0.01. c provides cardiac Troponin I level after administration of free doxorubicin (DOX) and doxorubicin nanoparticles (DOX-NPs).
The doxorubicin nanoparticles have an average particle diameter of 138 nm. […] The release of Dox in PBS was steady at approximately 2% per day, with 24% released in 12 days. […] Cardiotoxicity was tested based on cardiac troponin I level and histology.

## COc1cccc2c1C(=O)c1c(O)c3c(c(O)c1C2=O)C[C@@](O)(C(=O)CO)C[C@@H]3O[C@H]1C[C@H](N)[C@H](O)[C@H](C)O1 [DXR, doxorubicin]
[1]
  FRET efficiency between EGFP-AKT and mCherry-β-catenin: decreased with increasing concentrations of DXR
[2]; 6 months post-transplant
  blast cells, LSCs and HSPCs in surviving recipients: only trace levels of blast cells and LSCs, and HSPCs were within normal parameters
[2]; recipients of BM from treated leukemic mice
  recipients remaining healthy nearly 6 months post-transplant: 29/30
[3]
  HSPC recovery in BM: facilitates recovery of HSPCs
  LSCs in BM: prevents this expansion
[4]
  cardiotoxicity (cardiac troponin I level and histology): showed cardiotoxicity
